Counter-ions that a name gives are not always drawn.
Assays:
Format in all cases: in vivo
[1] = test system: Digitaria adscendens; experiment: Pre-emergence test (Example 6); settings: 10 days
Description: Upland soil was put in a pot of 10 cm diameter and the seeds of Digitaria adscendens were sown in the soil surface at a depth of 1 cm. After compacting the soil surface gently, the soil was sprayed evenly with solutions of Phosalacine sodium salt dissolved at different concentrations in water (each 5 ml). 10 days later, the number of emerged seedlings was counted and the percentage inhibition of emergence was evaluated by comparison with untreated plots. For comparison, a similar test was carried out using glyphosate (monosodium salt) instead of Phosalacine salt. The results shown in the following Table indicate that the pre-emergence effect of Phosalacine was better than that of glyphosate.

[2] = test system: Arctium lappa; experiment: Foliage treatment (Example 8); set-up: key: 0 indicates no effect; 5 indicates complete kill; settings: Plant No. 30 Arctium lappa, 14 days
Description: (§1) Aqueous solutions of Phosalacine (Na salt) at different concentrations were applied at a rate of 1500 liters per hectare to naturally occurring plants or plants which were cultured on plates as shown in the following Table at certain stages of growth. […]

[3] = test system: Brassica oleracea; experiment: Foliage treatment (Example 8); set-up: key: 0 indicates no effect; 5 indicates complete kill; settings: Plant No. 28 Brassica oleracea
Description: as §1

[4] = test system: Cucumis sativus; experiment: Foliage treatment (Example 8); set-up: key: 0 indicates no effect; 5 indicates complete kill; settings: Plant No. 33 Cucumis sativus
Description: as §1

[5] = test system: Miscanthus sinensis; experiment: Foliage treatment (Example 8); set-up: key: 0 indicates no effect; 5 indicates complete kill; settings: Plant No. 5 Miscanthus sinensis
Description: as §1

[6] = test system: Cayratia japonica; experiment: Foliage treatment (Example 8); set-up: key: 0 indicates no effect; 5 indicates complete kill; settings: Plant No. 13 Cayratia japonica
Description: (§2) Aqueous solutions of Phosalacine (Na salt) at different concentrations were applied at a rate of 1500 liters per hectare to naturally occurring plants or plants which were cultured on plates as shown in the following Table at certain stages of growth. […] One month after the foliage treatment, the inhibition of regrowth of the plants was visually investigated.

[7] = test system: Daucus carota; experiment: Foliage treatment (Example 8); set-up: key: 0 indicates no effect; 5 indicates complete kill; settings: Plant No. 29 Daucus carota
Description: as §2

[8] = test system: Digitaria adscendens; experiment: Foliage treatment (Example 8); set-up: key: 0 indicates no effect; 5 indicates complete kill; settings: Plant No. 10 Digitaria adscendens
Description: as §2

[9] = test system: Helianthus tuberosus; experiment: Foliage treatment (Example 8); set-up: key: 0 indicates no effect; 5 indicates complete kill; settings: Plant No. 12 Helianthus tuberosus
Description: as §2

[10] = test system: Imperata cyrindrica; experiment: Foliage treatment (Example 8); set-up: key: 0 indicates no effect; 5 indicates complete kill; settings: Plant No. 15 Imperata cyrindrica
Description: as §2

[11] = test system: Oryzae sativa; experiment: Foliage treatment (Example 8); set-up: key: 0 indicates no effect; 5 indicates complete kill; settings: Plant No. 25 Oryzae sativa
Description: as §2

[12] = test system: Pleioblastus chino; experiment: Foliage treatment (Example 8); set-up: key: 0 indicates no effect; 5 indicates complete kill; settings: Plant No. 11 Pleioblastus chino
Description: as §2

[13] = test system: Pueraria lobata; experiment: Foliage treatment (Example 8); set-up: key: 0 indicates no effect; 5 indicates complete kill; settings: Plant No. 16 Pueraria lobata
Description: as §2

[14] = test system: Raphanus sativus; experiment: Foliage treatment (Example 8); set-up: key: 0 indicates no effect; 5 indicates complete kill; settings: Plant No. 32 Raphanus sativus
Description: as §2

[15] = test system: Rumex obtusifolius; experiment: Foliage treatment (Example 8); set-up: key: 0 indicates no effect; 5 indicates complete kill; settings: Plant No. 14 Rumex obtusifolius
Description: as §2

[16] = test system: Solanum melongena; experiment: Foliage treatment (Example 8); set-up: key: 0 indicates no effect; 5 indicates complete kill; settings: Plant No. 31 Solanum melongena
Description: as §2

[17] = test system: Triticum aestivum; experiment: Foliage treatment (Example 8); set-up: key: 0 indicates no effect; 5 indicates complete kill; settings: Plant No. 26 Triticum aestivum
Description: as §2

[18] = test system: Rumex obtusifolius; experiment: Foliage treatment with different salts (Example 11); set-up: key: 0 indicates no effect; 5 indicates complete kill; settings: Rumex obtusifolius (Plant No. 14), 1000 liter per hectare
Description: Aqueous solutions containing different salts of Phosalacine at different concentrations as active ingredients and 0.1% of octylphenylpolyoxy ethanol as surfactant were applied at a rate of 1000 liter per hectare to Rumex obtusifolius (Plant No. 14) at a certain stage of growth. 21 days after foliage treatment, damage to the plant was visually assessed on a scale of 0 to 5 as hereinbefore described. The salts used were prepared by the methods described in the reference mentioned above.

CC(C)C[C@H](NC(=O)[C@H](C)NC(=O)[C@@H](N)CCP(C)(=O)O)C(=O)O [Phosalacine (Na salt)]
4: damage to the plants, scale 0 to 5 ([2]; 0.05%) | damage to the plants, scale 0 to 5 ([3]; 0.05%, 14 days) | damage to the plants, scale 0 to 5 ([4]; 0.05%, 14 days) | damage to the plants, scale 0 to 5 ([5]; 0.05%, 14 days) | damage to the plants, scale 0 to 5 ([6]; 0.05%, 14 days) | damage to the plants, scale 0 to 5 ([7]; 0.05%, 14 days) | damage to the plants, scale 0 to 5 ([8]; 0.05%, 14 days) | damage to the plants, scale 0 to 5 ([9]; 0.05%, 14 days) | damage to the plants, scale 0 to 5 ([10]; 0.05%, 14 days) | damage to the plants, scale 0 to 5 ([11]; 0.05%, 14 days) | damage to the plants, scale 0 to 5 ([12]; 0.05%, 14 days) | damage to the plants, scale 0 to 5 ([13]; 0.05%, 14 days) | damage to the plants, scale 0 to 5 ([14]; 0.05%, 14 days) | damage to the plants, scale 0 to 5 ([15]; 0.05%, 14 days) | damage to the plants, scale 0 to 5 ([17]; 0.05%, 14 days)
3: damage to the plants, scale 0 to 5 ([3]; 0.05%, 7 days) | damage to the plants, scale 0 to 5 ([4]; 0.05%, 7 days) | damage to the plants, scale 0 to 5 ([5]; 0.05%, 7 days) | damage to the plants, scale 0 to 5 ([6]; 0.05%, 7 days) | damage to the plants, scale 0 to 5 ([7]; 0.05%, 7 days) | damage to the plants, scale 0 to 5 ([8]; 0.05%, 7 days) | damage to the plants, scale 0 to 5 ([9]; 0.05%, 7 days) | damage to the plants, scale 0 to 5 ([10]; 0.05%, 7 days) | damage to the plants, scale 0 to 5 ([11]; 0.05%, 7 days) | damage to the plants, scale 0 to 5 ([12]; 0.05%, 7 days) | damage to the plants, scale 0 to 5 ([13]; 0.05%, 7 days) | damage to the plants, scale 0 to 5 ([14]; 0.05%, 7 days) | damage to the plants, scale 0 to 5 ([15]; 0.05%, 7 days) | damage to the plants, scale 0 to 5 ([16]; 0.05%, 7 days) | damage to the plants, scale 0 to 5 ([17]; 0.05%, 7 days) | Damage to plants after 21 days, scale 0 to 5 ([18]; 0.05%)
100%: Percent inhibition of emergence ([1]; 1000 g/ha) | Percent inhibition of emergence ([1]; 2500 g/ha)
80%: Percent inhibition of emergence ([1]; 500 g/ha)
5: damage to the plants, scale 0 to 5 ([2]; 0.1%) | damage to the plants, scale 0 to 5 ([3]; 0.1%, 7 days) | damage to the plants, scale 0 to 5 ([3]; 0.1%, 14 days) | damage to the plants, scale 0 to 5 ([4]; 0.1%, 7 days) | damage to the plants, scale 0 to 5 ([4]; 0.1%, 14 days) | damage to the plants, scale 0 to 5 ([5]; 0.1%, 7 days) | damage to the plants, scale 0 to 5 ([5]; 0.1%, 14 days) | damage to the plants, scale 0 to 5 ([6]; 0.1%, 7 days) | damage to the plants, scale 0 to 5 ([6]; 0.1%, 14 days) | damage to the plants, scale 0 to 5 ([7]; 0.1%, 7 days) | damage to the plants, scale 0 to 5 ([7]; 0.1%, 14 days) | damage to the plants, scale 0 to 5 ([8]; 0.1%, 7 days) | damage to the plants, scale 0 to 5 ([8]; 0.1%, 14 days) | damage to the plants, scale 0 to 5 ([9]; 0.1%, 7 days) | damage to the plants, scale 0 to 5 ([9]; 0.1%, 14 days) | damage to the plants, scale 0 to 5 ([10]; 0.1%, 7 days) | damage to the plants, scale 0 to 5 ([10]; 0.1%, 14 days) | damage to the plants, scale 0 to 5 ([11]; 0.1%, 7 days) | damage to the plants, scale 0 to 5 ([11]; 0.1%, 14 days) | damage to the plants, scale 0 to 5 ([12]; 0.1%, 7 days) | damage to the plants, scale 0 to 5 ([12]; 0.1%, 14 days) | damage to the plants, scale 0 to 5 ([13]; 0.1%, 7 days) | damage to the plants, scale 0 to 5 ([13]; 0.1%, 14 days) | damage to the plants, scale 0 to 5 ([14]; 0.1%, 7 days) | damage to the plants, scale 0 to 5 ([14]; 0.1%, 14 days) | damage to the plants, scale 0 to 5 ([15]; 0.1%, 7 days) | damage to the plants, scale 0 to 5 ([15]; 0.1%, 14 days) | damage to the plants, scale 0 to 5 ([16]; 0.05%, 14 days) | damage to the plants, scale 0 to 5 ([16]; 0.1%, 7 days) | damage to the plants, scale 0 to 5 ([16]; 0.1%, 14 days) | damage to the plants, scale 0 to 5 ([17]; 0.1%, 7 days) | damage to the plants, scale 0 to 5 ([17]; 0.1%, 14 days) | Damage to plants after 21 days, scale 0 to 5 ([18]; 0.1%)

From patent US4613355A, “Antibiotic having herbicidal activity” (Satoshi Omura, priority 1983, dated 1986)
